These results are taken from patent US10238688B2, “Combination therapies for bladder cancer” (GENEDIA BIOTECH CO. LTD., priority 2015, dated 2019).

What all share (assay type): cell-based, human
One assay relates to UM-UC-3. Briefly: MTT cell survival / IC50, UM-UC-3 cells. The following applies: for Cell survival (%) / Single drug 4X Cell Survival (%): UM-UC-3; for Cell survival (%): Table S3, ng/ml: Pi 40, Pa 160, EH 250, Ci 1500, Mi 200, 1=Ci/Mi, 2=EH/Ci/Mi, 3=Pa/Ci/Mi, 4=Pi/Ci/Mi; for Single drug 4X Cell Survival (%): ng/ml: EH 1000, Ci 6000, Mi 800, Pi 160, Pa 640, Ge 20, EH/Ci/Mi regimen; for ACS (%): UM-UC-3 cells, Table 4 (B); for Cell survival 72 hours: Um-Uc-3 cells, Table 4 (A). How it is done: (§1) The clinical grade of the chemotherapeutics (NCI Dictionary of Cancer Terms) was provided by the First Affiliated Hospital of Harbin Medical University: Pirarubicin (Pi, Wanle, Shenzhen), Paclitaxel (Pa, Taiji, Sichuan), Adriamycin (Ad, Pfizer, Jiangsu), Epirubicin Hydrochloride (EH, Haizheng, Zhejiang), Hydroxycamptothecin (Hy, Lishizhen, Hubei), Cisplatin (Ci, Haosen, Jiangsu), Gemcitabine (Ge, Haosen, Jiangsu) and Mitomycin (Mi, Haizheng, Zhejiang). The drug induced cell death was determined by a thiazolyl […] (MTT, 490 nm reading) based cell proliferation assay in the cultured cells following treatment by various concentrations of drugs for 72 hours. The relative chemoresistance to each drug of all cell lines was calculated with the lowest IC50 as a reference. The overall chemoresistance of each cell line was described as “chemoresistance index”, the numerator of the total relative IC50 to all the drugs over the number of drugs to rank the overall resistance state of each cell line to the six chemotherapeutics collectively.
The relative IC50 (fold) of each drug of all nine cell lines was normalized to the lowest IC50 in the most sensitive cell line (FIG. 2G), to describe the single drug resistance of cell lines. The overall chemoresistance of each cell line, a “chemoresistance index” (the numerator of the total relative IC50 over the number of drugs) (FIG. 2G) were calculated to rank the overall resistance state of each cell line to this six chemotherapeutics.
(§2) Twenty six-drug combinations at the indicated doses were initially generated through a random number generator (using MATLAB MathWorks©, Natick, Mass., U.S.) (The upper half of Table 1). The cell survival (% over the not drug control) of treated cells was determined and then used for a calculation of the average cumulative cell survival (%, ACS: the sum of cell survival (%) per combination divided by the number of cell lines tested). ACS<30% was used to separate the effective from the not-effective combinations.

Assay [1] deals with bladder cancer cell lines. Briefly: Average cumulative cell survival (ACS) over the panel of cell lines tested. The following applies: for ACS (%): eight cell lines, Table S3, ng/ml: Pi 40, Pa 160, EH 250, Ci 1500, Mi 200, 1=Ci/Mi, 2=EH/Ci/Mi, 3=Pa/Ci/Mi, 4=Pi/Ci/Mi; for ACS: four-fold dosed component drugs alone: Ci 6000 ng/mL, Mi 800 ng/mL, EH 1000 ng/mL (Table S4); for ACS (%) for cancer cells: seven cancer cell lines, ng/ml: EH 1000, Ci 6000, Mi 800, Pi 160, Pa 640, Ge 20, EH/Ci/Mi regimen. On the procedure: as §1
The “Differential Evolution” algorithm guided experimental optimization (DE) consisted of three iterative operations: generating drug combinations of experimental testing, acquiring the efficacy of the generated drug combinations with biological assays and recalculating further improved drug combinations using a feedback search algorithm. This example first tested twenty drug combinations at randomized doses. These drug combinations were generated from a random integer matrix generator, coded in MATLAB™ language. These twenty drug combinations were then experimentally tested for cancer cell cytotoxicity. The experimental data were then subjected to calculation with a DE algorithm for new drug combinations based on three major mathematical calculations: “Mutation”, “Crossover” and “Selection”. The equations for each step can be found in the main test. The equations for each step are coded in MATLAB™ language.
as §2, with “combinations. Nine of the twenty combinations tested in the 1st round of iteration fell into this category (the lower half of Table 1).” for “combinations.”

Assay [2] relates to DNA Damage response pathway. Briefly: Cignal Finder dual-luciferase pathway reporter, DNA Damage response (5637, Biu87, UM-UC-3, H-bc, SV-HUC-1). Also on record: key to Relative activity, DNA Damage reporter: firefly/renilla ratio, background (negative control) subtracted. The following applies: for Relative activity, DNA Damage reporter: luc/Renluc relative to negative control reporter, single drug at 4 folds vs EH/Ci/Mi combination. How it is done: The pathway analysis was performed with Qiagen's Cignal Finder Pathway Reporter Array systems according to the manufacturer's instructions. The pathway-focused dual-luciferase reporter construct was a mixture of an inducible transcription factor responsive firefly luciferase reporter and constitutively expressing renilla construct. Transcriptional response element (TRE) sequence response elements to each specific transcriptional factor triggered by the different signaling pathways are positioned before the TATA box of firefly luciferase reporter gene. The extent of activity of the reporter reflects the level of activity of the particular signaling pathway. CMV controlled renilla expression vector is co-transfected into the cell as an internal control. Non-inducible reporter construct that lacks the transcriptional factor binding sequence and could not be induced by any transcription factors is used as a negative control. Cells transfected with CMV directed firefly luciferase reporter gene serve as a positive control. Briefly, cells seeded in 6-well plates were transfected with Cignal finder pathway arrays according to the manufacturer's instructions (Qiagen). Then cells were seeded onto 96-well plates. […] After 6 h of incubation with the different drugs at 37° C., cells were lysed and a dual luciferase assay (for firefly and renilla luciferase) was performed using a PromegaGloMax 20/20 illuminometer. The firefly luciferase activities were normalized over the renilla luciferase activities after background activity determined by luciferase activities of negative controls was subtracted. A triple test of cell survival under these drug doses was also performed by MTT assay following 18 h incubation at 37° C. […]

Turning to `N.N.[Cl][Pt][Cl]` [Ci, (SP-4-2)-diamminedichloroplatinum(II)], in the assay on UM-UC-3, the “Cell survival (%)” value is listed as 14.71%, the “Single drug 4X Cell Survival (%)” value was 9.33%, the “ACS (%)” value turned out to be 9.33% and the “Cell survival 72 hours” value was 9.33%. In assay [1], the “ACS (%)” value is 22.9%, the ACS was 16.60% and the “ACS (%) for cancer cells” value is 9.11%. Also, in assay [2] (5637 cells), the “relative drug trigged pathway activity over the no-drug level, DNA Damage” value is 2.17 fold and the “Relative activity, DNA Damage reporter” value was 0.48. Also, in assay [2] (Biu87 cells), the “digitalized pathway activity, DNA Damage” value is 0 (null (0) if neither of the above holds); the “relative drug trigged pathway activity over the no-drug level, DNA Damage” value is given as 0.63 fold; the “Relative activity, DNA Damage reporter” value was found to be 0.94. Moreover, in assay [2] (H-bc cells), the “relative drug trigged pathway activity over the no-drug level, DNA Damage” value amounted to 1.69 fold and the “Relative activity, DNA Damage reporter” value was 4.19. In assay [2] (SV-HUC-1 cells), the “relative drug trigged pathway activity over the no-drug level, DNA Damage” value was determined as 1.54 fold and the “Relative activity, DNA Damage reporter” value was found to be 3.70. Moreover, in assay [2] (UM-UC-3 cells), the “digitalized pathway activity, DNA Damage” value is on record as 0 (null (0) if neither of the above holds) and the “Relative activity, DNA Damage reporter” value turned out to be 2.38. For the same compound, the “relative drug trigged pathway activity over the no-drug level, DNA Damage” value in assay [2] (Um-Uc-3 cells) came to 0.68 fold.

For the compound `COc1cccc2c1C(=O)c1c(O)c3c(c(O)c1C2=O)C[C@@](O)(C(=O)CO)C[C@@H]3[C@@H]1C[C@H](N)[C@@H](O)[C@H](C)O1` [EH, (8R,10S)-10-((2S,4S,5R,6S)-4-amino-5-hydroxy-6-methyltetrahydro-2H-pyran-2-yl)-6,8,11-trihydroxy-8-(2-hydroxyacetyl)-1-methoxy-7,8,9,10-tetrahydrotetracene-5,12-dione], in the assay on UM-UC-3, the “Cell survival (%)” value is on record as 43.54%, the “Single drug 4X Cell Survival (%)” value is 25.19%, the “ACS (%)” value was found to be 25.19% and the “Cell survival 72 hours” value was determined as 25.19%. Moreover, in assay [1], the “ACS (%)” value was 39.75%, the ACS was determined as 9.11% and the “ACS (%) for cancer cells” value turned out to be 16.60%. In assay [2] (5637 cells), the “relative drug trigged pathway activity over the no-drug level, DNA Damage” value is 3.42 fold and the “Relative activity, DNA Damage reporter” value amounted to 0.75. Besides, in assay [2] (Biu87 cells), the “digitalized pathway activity, DNA Damage” value is given as 0 (null (0) if neither of the above holds); the “relative drug trigged pathway activity over the no-drug level, DNA Damage” value was 1.04 fold; the “Relative activity, DNA Damage reporter” value amounted to 1.58. Further, in assay [2] (H-bc cells), the “relative drug trigged pathway activity over the no-drug level, DNA Damage” value amounted to 6.13 fold and the “Relative activity, DNA Damage reporter” value is listed as 3.99. In assay [2] (SV-HUC-1 cells), the “relative drug trigged pathway activity over the no-drug level, DNA Damage” value was determined as 2.5 fold and the “Relative activity, DNA Damage reporter” value worked out at 6.00. For the same compound, the “Relative activity, DNA Damage reporter” value in assay [2] (UM-UC-3 cells) came out at 5.96. Moreover, the “relative drug trigged pathway activity over the no-drug level, DNA Damage” value in assay [2] (Um-Uc-3 cells) is given as 1.71 fold.

Consider `COC12C(COC(N)=O)C3=C(C(=O)C(C)=C(N)C3=O)N1CC1NC12` (stereo not drawn) [Mi, [6-Amino-8a-methoxy-5-methyl-4,7-dioxo-1,1a,2,4,7,8,8a,8b-octahydroazireno [2′,3′:3,4]pyrrolo[1,2-a]indol-8-yl]methyl carbamate], for which, in the assay with UM-UC-3, the “Cell survival (%)” value worked out at 66.2%, the “Single drug 4X Cell Survival (%)” value is 54.74%, the “ACS (%)” value was 54.71% and the “Cell survival 72 hours” value was determined as 54.71%. Also, in assay [1], the “ACS (%)” value was 56.85%, the ACS came out at 40.49% and the “ACS (%) for cancer cells” value turned out to be 40.49%. Also, in assay [2] (5637 cells), the “relative drug trigged pathway activity over the no-drug level, DNA Damage” value was 2.87 fold and the “Relative activity, DNA Damage reporter” value came to 0.63. Besides, in assay [2] (Biu87 cells), the “digitalized pathway activity, DNA Damage” value is given as 0 (null (0) if neither of the above holds); the “relative drug trigged pathway activity over the no-drug level, DNA Damage” value stood at 1.35 fold; the “Relative activity, DNA Damage reporter” value was 2.03. In addition, in assay [2] (H-bc cells), the “digitalized pathway activity, DNA Damage” value was 0 (null (0) if neither of the above holds); the “relative drug trigged pathway activity over the no-drug level, DNA Damage” value turned out to be 1.08 fold; the “Relative activity, DNA Damage reporter” value is on record as 0.73. Further, in assay [2] (SV-HUC-1 cells), the “relative drug trigged pathway activity over the no-drug level, DNA Damage” value is reported as 1.75 fold and the “Relative activity, DNA Damage reporter” value turned out to be 4.20. For the same compound, in assay [2] (UM-UC-3 cells), the “digitalized pathway activity, DNA Damage” value is 0 (null (0) if neither of the above holds) and the “Relative activity, DNA Damage reporter” value is given as 4.77. The “relative drug trigged pathway activity over the no-drug level, DNA Damage” value in assay [2] (Um-Uc-3 cells) is on record as 1.37 fold.
